According to patent US20250263650A1, “FUNGUS AND MICROBIAL AGENT FOR TREATING MERCURY CONTAMINATION, USE THEREOF, MERCURY REMOVAL METHOD, AND METHOD FOR I[…] CAPABLE OF TREATING MERCURY CONTAMINATION” (ZHEJIANG UNIVERSITY, priority 2021, published 2025):

Test system: Zea mays L. seeds
Experiment: Tolerance of Zea mays L. to methylmercury and divalent mercury (seed germination in soil)
Format: in vivo
Description: Methylmercury was added to the soil, where five concentrations of 0 μg/kg, 2.5 μg/kg, 5 μg/kg, 7.5 μg/kg, and 10 μg/kg were set. Divalent mercury was added to the soil, where five concentrations of 0 mg/kg, 20 mg/kg, 30 mg/kg, 40 mg/kg, and 50 mg/kg were set. The soil was placed in a cultivation vessel (with a height of 14 cm and a diameter of 7 cm).
Seed disinfection and cultivation: Zea mays L. seeds were disinfected for 5 min in 1% sodium hypochlorite and then washed three times with sterile water (1 min each time), disinfected for 10 min with 15% H2O2 and then washed three times with sterile water (1 min each time), and then placed in a 2% water agar medium and vernalized overnight at 4° C. Then, the pretreated seeds were sown into the soil, and 10 P. purpureum seeds or 5 Zea mays L. seeds were sown in each vessel.

With `[Hg+2]` [divalent mercury] the “germination rate of the Zea mays L. seeds” value (from here on “germination rate”) (soil with 20 mg/kg divalent mercury) was 100%, the “germination rate” value (soil with 30 mg/kg divalent mercury) was 80% and the “germination rate” value (soil with 40 mg/kg divalent mercury) was 60%.

With `[CH3][Hg][Cl]` [methylmercury] the “germination rate” value (soil with 2.5 μg/kg methylmercury) was 100% and the “germination rate” value (soil with 10 μg/kg methylmercury) was 80%.
